{"source": "patent US10029984B2", "about": "“Mono- or di-substituted indole derivatives as dengue viral replication inhibitors” (Janssen Pharmaceuticals, Inc., priority 2015, dated 2018)", "key": {"in vitro": {"test": "in vitro", "format": "cell-based", "settings": "African green monkey, CC50", "experimental": "In parallel, the toxicity of the compounds was assessed on the same plates. Once the read-out for the eGFP signal was done, 10 μL of resazurin, a cell viability stain, was added to all wells of the 384-well plates. The resazurin assay is based on the reduction of the blue resazurin by NADH, produced by the cells, into the highly fluorescent product, resorufin. The formation of pink fluorescent resorufin is directly related to the number of viable cells in the well. The plates were incubated for an additional 5 hours in a fully humidified incubator (37° C., 5% CO2). Next, the plates were measured on an Infinite reader (Tecan) using an excitation wavelength of 530 nm. The half maximal cytotoxic concentration (CC50) was also determined, defined as the concentration required to reduce the resazurin conversion by 50% compared to that of the cell control wells. Finally, the selectivity index (SI) was determined for the compounds, which was calculated as followed: SI=CC50/EC50."}, "DENV-2 16681 strain": {"tested_on": "DENV-2 16681 strain", "test": "DENV-2 antiviral assay (eGFP-labeled virus in Vero cells)", "format": "cell-based, Dengue virus", "settings": "DENV-2 16681 eGFP, MOI 0.5, 3 days", "experimental": "The antiviral activity of all the compounds of the invention was tested against DENV-2 16681 strain which was labeled with enhanced green fluorescent protein (eGPF; Table 1). The culture medium consists of minimal essential medium supplemented with 2% of heat-inactivated fetal calf serum, 0.04% gentamycin (50 mg/mL) and 2 mM of L-glutamine. Vero cells, obtained from ECACC, were suspended in culture medium and 25 μL was added to 384-well plates (2500 cells/well), which already contain the antiviral compounds. Typically, these plates contain a 4-fold serial dilution of 9 dilution steps of the test compound at 200 times the final concentration in 100% DMSO (200 nL). In addition, each compound concentration is tested in quadruplicate (final concentration range: 25 μM-0.00038 μM). Finally, each plate contains wells which are assigned as virus controls (containing cells and virus in the absence of compound), cell controls (containing cells in the absence of virus and compound) and medium controls (containing medium in the absence of cells, virus and compounds). To the wells assigned as medium control, 25 μL of culture medium was added instead of Vero cells. Once the cells were added to the plates, the plates were incubated for 30 minutes at room temperature to allow the cells to distribute evenly within the wells. Next, the plates were incubated in a fully humidified incubator (37° C., 5% CO2) until the next day. Then, DENV-2 strain 16681, labeled with eGFP, was added at a multiplicity of infection (MOI) of 0.5. Therefore, 15 μL of virus suspension was added to all the wells containing test compound and to the wells assigned as virus control. In parallel, 15 μL of culture medium was added to the medium and cell controls. Next, the plates were incubated for 3 days in a fully humidified incubator (37° C., 5% CO2). At the day of the read out, the eGFP fluorescence was measured using an automated fluorescence microscope at 488 nm (blue laser). Using an in-house LIMS system, inhibition dose response curves for each compound were calculated and the half maximal effective concentration (EC50) was determined. Therefore, the percent inhibition (I) for every test concentration is calculated using the following formula: I=100*(ST−SCC)/(SVC−SCC); ST, SCC and SVC are the amount of eGFP signal in the test compound, cell control and virus control wells, respectively. The EC50 represents the concentration of a compound at which the virus replication is inhibited with 50%, as measured by a 50% reduction of the eGFP fluorescent intensity compared to the virus control. The EC50 is calculated using linear interpolation."}, "[1]": {"settings": "Dengue virus, DENV2, Vero, 72 h"}}}
{"smiles": "COc1cc(NC(C(=O)c2c[nH]c3c(C)c(F)ccc23)c2ccc(F)cc2OC)cc(S(C)(=O)=O)c1", "note": "(racemic) [Compound 2, 2-(4-fluoro-2-methoxyphenyl)-1-(6-fluoro-7-methyl-1H-indol-3-yl)-2-((3-methoxy-5-(methylsulfonyl)phenyl)amino)ethanone]", "values": [{"measurement": "CC50", "setting": "in vitro", "result": 8000, "unit": "nM"}, {"measurement": "EC50", "setting": "DENV-2 16681 strain; [1]", "result": 1.3, "unit": "nM"}]}
{"smiles": "COc1cc(NC(C(=O)c2c[nH]c3c(C)c(Cl)ccc23)c2ccc(F)cc2OC)cc(S(C)(=O)=O)c1", "note": "(racemic) [Compound 3, 1-(6-chloro-7-methyl-1H-indol-3-yl)-2-(4-fluoro-2-methoxyphenyl)-2-((3-methoxy-5-(methylsulfonyl)phenyl)amino)ethanone]", "values": [{"measurement": "CC50", "setting": "in vitro", "result": 7200, "unit": "nM"}, {"measurement": "EC50", "setting": "DENV-2 16681 strain; [1]", "result": 0.58, "unit": "nM"}]}
{"smiles": "COc1cc(NC(C(=O)c2c[nH]c3cc(Cl)ccc23)c2ccc(F)cc2OC)cc(S(C)(=O)=O)c1", "note": "(racemic) [Compound 4, 1-(6-chloro-1H-indol-3-yl)-2-(4-fluoro-2-methoxyphenyl)-2-((3-methoxy-5-(methylsulfonyl)phenyl)amino)ethanone]", "values": [{"measurement": "CC50", "setting": "in vitro", "result": 6600, "unit": "nM"}, {"measurement": "EC50", "setting": "DENV-2 16681 strain; [1]", "result": 1.1, "unit": "nM"}]}
{"smiles": "COc1cc(NC(C(=O)c2c[nH]c3cc(OC)ccc23)c2ccc(F)cc2OC)cc(S(C)(=O)=O)c1", "note": "(racemic) [Compound 5, 2-(4-fluoro-2-methoxyphenyl)-1-(6-methoxy-1H-indol-3-yl)-2-((3-methoxy-5-(methylsulfonyl)phenyl)amino)ethanone]", "values": [{"measurement": "CC50", "setting": "in vitro", "result": 24000, "unit": "nM"}, {"measurement": "EC50", "setting": "DENV-2 16681 strain; [1]", "result": 2, "unit": "nM"}]}
{"smiles": "COc1cc(NC(C(=O)c2c[nH]c3cc(F)c(F)cc23)c2ccc(F)cc2OC)cc(S(C)(=O)=O)c1", "note": "(racemic) [Compound 7, 1-(5,6-difluoro-1H-indol-3-yl)-2-(4-fluoro-2-methoxyphenyl)-2-((3-methoxy-5-(methylsulfonyl)phenyl)amino)ethanone]", "values": [{"measurement": "CC50", "setting": "in vitro", "result": 5000, "unit": "nM"}, {"measurement": "EC50", "setting": "DENV-2 16681 strain; [1]", "result": 1.5, "unit": "nM"}]}
{"smiles": "COc1cc(NC(C(=O)c2c[nH]c3c(C)cc(F)cc23)c2ccc(F)cc2OC)cc(S(C)(=O)=O)c1", "note": "(racemic) [Compound 8, 2-(4-fluoro-2-methoxyphenyl)-1-(5-fluoro-7-methyl-1H-indol-3-yl)-2-((3-methoxy-5-(methylsulfonyl)phenyl)amino)ethanone]", "values": [{"measurement": "CC50", "setting": "in vitro", "result": 7600, "unit": "nM"}, {"measurement": "EC50", "setting": "DENV-2 16681 strain; [1]", "result": 2.8, "unit": "nM"}]}
{"smiles": "COc1cc(NC(C(=O)c2c[nH]c3cc(C)c(F)cc23)c2ccc(F)cc2OC)cc(S(C)(=O)=O)c1", "note": "(racemic) [Compound 9, 2-(4-fluoro-2-methoxyphenyl)-1-(5-fluoro-6-methyl-1H-indol-3-yl)-2-((3-methoxy-5-(methylsulfonyl)phenyl)amino)ethanone]", "values": [{"measurement": "CC50", "setting": "in vitro", "result": 8800, "unit": "nM"}, {"measurement": "EC50", "setting": "DENV-2 16681 strain; [1]", "result": 1.6, "unit": "nM"}]}
{"smiles": "COc1cc(NC(C(=O)c2c[nH]c3cc(OC)c(C)cc23)c2ccc(F)cc2OC)cc(S(C)(=O)=O)c1", "note": "(racemic) [Compound 10, 2-(4-fluoro-2-methoxyphenyl)-2-((3-methoxy-5-(methylsulfonyl)phenyl)amino)-1-(6-methoxy-5-methyl-1H-indol-3-yl)ethanone]", "values": [{"measurement": "CC50", "setting": "in vitro", "result": 7800, "unit": "nM"}, {"measurement": "EC50", "setting": "DENV-2 16681 strain; [1]", "result": 1.1, "unit": "nM"}]}
{"smiles": "COc1cc(NC(C(=O)c2c[nH]c3cc(OC)c(F)cc23)c2ccc(F)cc2OC)cc(S(C)(=O)=O)c1", "note": "(racemic) [Compound 11, 2-(4-fluoro-2-methoxyphenyl)-1-(5-fluoro-6-methoxy-1H-indol-3-yl)-2-((3-methoxy-5-(methylsulfonyl)phenyl)amino)ethanone]", "values": [{"measurement": "CC50", "setting": "in vitro", "result": 12000, "unit": "nM"}, {"measurement": "EC50", "setting": "DENV-2 16681 strain; [1]", "result": 3, "unit": "nM"}]}
{"smiles": "COc1cc(NC(C(=O)c2c[nH]c3c(Cl)c(OC)ccc23)c2ccc(F)cc2OC)cc(S(C)(=O)=O)c1", "note": "(racemic) [Compound 12, 1-(7-chloro-6-methoxy-1H-indol-3-yl)-2-(4-fluoro-2-methoxyphenyl)-2-((3-methoxy-5-(methylsulfonyl)phenyl)amino)ethanone]", "values": [{"measurement": "CC50", "setting": "in vitro", "result": "> 25000", "unit": "nM"}, {"measurement": "EC50", "setting": "DENV-2 16681 strain; [1]", "result": 0.6, "unit": "nM"}]}
{"smiles": "COc1cc(NC(C(=O)c2c[nH]c3c(F)c(F)ccc23)c2ccc(F)cc2OC)cc(S(C)(=O)=O)c1", "note": "(racemic) [Compound 13, 1-(6,7-difluoro-1H-indol-3-yl)-2-(4-fluoro-2-methoxyphenyl)-2-((3-methoxy-5-(methylsulfonyl)phenyl)amino)ethanone]", "values": [{"measurement": "CC50", "setting": "in vitro", "result": 7600, "unit": "nM"}, {"measurement": "EC50", "setting": "DENV-2 16681 strain; [1]", "result": 1.4, "unit": "nM"}]}
{"smiles": "COc1cc(NC(C(=O)c2c[nH]c3cc(F)c(C)cc23)c2ccc(F)cc2OC)cc(S(C)(=O)=O)c1", "note": "(racemic) [Compound 14, 2-(4-fluoro-2-methoxyphenyl)-1-(6-fluoro-5-methyl-1H-indol-3-yl)-2-((3-methoxy-5-(methylsulfonyl)phenyl)amino)ethanone]", "values": [{"measurement": "CC50", "setting": "in vitro", "result": 5300, "unit": "nM"}, {"measurement": "EC50", "setting": "DENV-2 16681 strain; [1]", "result": 1.5, "unit": "nM"}]}
{"smiles": "COc1cc(NC(C(=O)c2c[nH]c3ccc(C)cc23)c2ccc(F)cc2OC)cc(S(C)(=O)=O)c1", "note": "(racemic) [Compound 15, 2-(4-fluoro-2-methoxyphenyl)-2-((3-methoxy-5-(methylsulfonyl)phenyl)amino)-1-(5-methyl-1H-indol-3-yl)ethanone]", "values": [{"measurement": "CC50", "setting": "in vitro", "result": 7800, "unit": "nM"}, {"measurement": "EC50", "setting": "DENV-2 16681 strain; [1]", "result": 1.5, "unit": "nM"}]}
{"smiles": "COc1cc(NC(C(=O)c2c[nH]c3cc(OC)c(Cl)cc23)c2ccc(F)cc2OC)cc(S(C)(=O)=O)c1", "note": "(racemic) [Compound 16, 1-(5-chloro-6-methoxy-1H-indol-3-yl)-2-(4-fluoro-2-methoxyphenyl)-2-((3-methoxy-5-(methylsulfonyl)phenyl)amino)ethanone]", "values": [{"measurement": "CC50", "setting": "in vitro", "result": 8800, "unit": "nM"}, {"measurement": "EC50", "setting": "DENV-2 16681 strain; [1]", "result": 0.66, "unit": "nM"}]}
{"smiles": "COc1cc(NC(C(=O)c2c[nH]c3ccc(C(F)(F)F)cc23)c2ccc(F)cc2OC)cc(S(C)(=O)=O)c1", "note": "(racemic) [Compound 17, 2-(4-fluoro-2-methoxyphenyl)-2-((3-methoxy-5-(methylsulfonyl)phenyl)amino)-1-(5-(trifluoromethyl)-1H-indol-3-yl)ethanone]", "values": [{"measurement": "CC50", "setting": "in vitro", "result": 3500, "unit": "nM"}, {"measurement": "EC50", "setting": "DENV-2 16681 strain; [1]", "result": 0.24, "unit": "nM"}]}
{"smiles": "COc1cc(NC(C(=O)c2c[nH]c3ccc(OC(F)(F)F)cc23)c2ccc(F)cc2OC)cc(S(C)(=O)=O)c1", "note": "(racemic) [Compound 18, 2-(4-fluoro-2-methoxyphenyl)-2-((3-methoxy-5-(methylsulfonyl)phenyl)amino)-1-(5-(trifluoromethoxy)-1H-indol-3-yl)ethanone]", "values": [{"measurement": "CC50", "setting": "in vitro", "result": 3300, "unit": "nM"}, {"measurement": "EC50", "setting": "DENV-2 16681 strain; [1]", "result": 0.25, "unit": "nM"}]}
{"smiles": "COc1cc(NC(C(=O)c2c[nH]c3cc(OC)ccc23)c2ccc(F)cc2OC)cc(S(C)(=O)=O)c1", "note": "(single isomer, unassigned) [Enantiomer 5A, 2-(4-fluoro-2-methoxyphenyl)-1-(6-methoxy-1H-indol-3-yl)-2-((3-methoxy-5-(methylsulfonyl)phenyl)amino)ethanone]", "values": [{"measurement": "CC50", "setting": "in vitro", "result": 24000, "unit": "nM"}, {"measurement": "EC50", "setting": "DENV-2 16681 strain; listed as 5A", "result": 70, "unit": "nM"}]}
{"smiles": "COc1cc(NC(C(=O)c2c[nH]c3c(F)c(F)ccc23)c2ccc(F)cc2OC)cc(S(C)(=O)=O)c1", "note": "(single isomer, unassigned) [Enantiomer 13A, 1-(6,7-difluoro-1H-indol-3-yl)-2-(4-fluoro-2-methoxyphenyl)-2-((3-methoxy-5-(methylsulfonyl)phenyl)amino)ethanone]", "values": [{"measurement": "CC50", "setting": "in vitro", "result": 9500, "unit": "nM"}, {"measurement": "EC50", "setting": "DENV-2 16681 strain; listed as 13A", "result": 17, "unit": "nM"}]}
